Series [1] has as its system human PBMC. Put plainly: Toxicity assay under normal cell culture conditions (MTS), PBMC. Type of series: cell-based. Conditions: human PBMC, RPMI+10% FBS+IL-2, 72 h incubation, MTS. The method, then: (§1) Toxicity Assays (Under Normal Cell Culture Conditions):
(§2) Compounds were prepared as for the invasion assay, and then added to either MDA-MB231-luc-D3H2LN cells (2000/well) under normal culture conditions (MEM+10% FBS), or human PBMC (75000/well, in RPMI+10% FBS+IL-2) in standard 96-well tissue culture plates. After 72 h incubation, a standard MTS assay was performed according to the manufacturer's instructions (Promega Ref. G3581). Compounds were tested at various concentrations (concentration-response curves) in order to determine the concentrations at which 50% toxicity is obtained.

The subject of series [2] is MDA-MB231-luc-D3H2LN cells. Put plainly: Viability (MTS) assay on the cells in collagen under invasion assay conditions. Conditions: loss of viability at the concentration giving 0.5 × effect of 10 μM Y-27632, invasion assay conditions. Type of series: cell-based, human. The method, then:
(§3) Viability assay, fixation and staining: Following another 24 h incubation, an MTS assay is performed directly on the cells in the collagen. Then, cells are fixed and nuclei are stained.
(§4) In order to detect possible toxic effects, all compounds are tested in parallel in a viability assay. The viability assay is performed in parallel on serum-starved cells (as in the invasion assay) vs. cells under normal culture conditions (10% FBS).
Viability Assay: MTS Assay:
add each 33 μl/well of the MTS reagent, incubate 3-4 h at 37° C./5% CO2
read absorbance at 490 nm (proportional to the viability)
calculate the background-corrected signals by subtracting the means of the background signals in absence of cells from the corresponding signals in presence of cells
normalize the background-corrected signals with respect to the mean signal of the negative controls (no drug) (viabilities are thus expressed in “% of control”)
(§5) Final analysis: Determine the concentration at which a given compound has 50% of the anti-invasive effect of the positive control (10 μM Y-27632). Determine the toxicity (=loss of viability) of the compound under these conditions.

Series [3] has as its system MDA-MB231-luc-D3H2LN cells. Put plainly: Toxicity assay under normal cell culture conditions (MTS), MDA cells. Type of series: cell-based, human. Conditions: MDA-MB231-luc-D3H2LN cells, MEM+10% FBS, 72 h incubation, MTS. The method, then: as §4, §1, §2
Series [4] has as its system MDA-MB231-luc-D3H2LN cells. In words: Invasion of MDA-MB231-D3H2LN cells into collagen (example 15 = procedure 2, 48 h drug pre-incubation). The series is classed as cell-based. Conditions: concentration giving 50% of the anti-invasive effect of 10 μM Y-27632; 48 h pre-incubation, 24 h with 5% FBS; read-out: MDA: Inhib. of invasion: 0.5 × eff. of 10 μM Y-27632 at (μM) av. As to the method: Effect of Drug Compounds on Invasion of MDA-MB231-D3H2LN Cells into Collagen
Preparation of cells at the bottom of a collagen gel: Cells are suspended in a liquid collagen solution (4° C.), distributed into BSA-coated wells, and then collected at the bottom of the wells by centrifugation. The collagen is then solidified by incubation at 37° C. The BSA coating improves the adhesion of the collagen gel.
Pre-treatment with the compounds to be tested: Concentrated drug solutions are then added on top of the collagen, and cells are pre-incubated for 48 h with the drugs at low serum conditions (0.025% FBS).
Stimulation of invasion: Medium with 5% FBS is then added in order to stimulate invasion of the cells into the collagen gel.
as §3
Analysis: Finally, plates are analyzed using an automated microscope. Fluorescent beads that have been included into the BSA coating serve to detect the bottom of the wells. Pictures of the stained nuclei are taken at the same level (0 μm) as well as 25 μm and 50 μm above.
Negative control: No drug (just DMSO at equivalent concentration). Positive control: 10 μM Y-27632. To avoid edge effects, cells are added only to the 60 central wells B2-G11; lines A and H receive only collagen without cells (blank for the MTS assay) columns 1 and 12 remain free. Each drug is tested at least in triplicate. The positive and negative controls should be tested in several triplicates at different positions on each plate. Typical plate map (−=negative control, +=positive control, 1-12=12 different test conditions, i. e. different drug compounds or concentrations):
Preparation of 4× concentrated drug solutions in MEM+0.1% FBS+2% Lutrol E-400+0.8% DMSO: Mix each 620 μl MEM+0.1% FBS+2% Lutrol E-400 with each 4 μl DMSO+each 1 μl of the 50 mM compound stock solutions (yielding […] and 0.8% DMSO). If the desired final compound concentration is <5 μM, then further dilute in MEM+0.1% FBS+0.8% DMSO. Negative control: MEM+0.1% FBS+2% Lutrol E-400+0.8% DMSO without any drug. Preparation of the positive control: Mix 4.5 ml MEM+0.1% FBS+2% Lutrol E-400+[…] with 36 μl 5 mM Y-27632 (freshly thawed aliquot) (yielding 40 μM).
add each 33 μl/well of the 4× concentrated drug solutions in MEM+0.1% FBS+2% Lutrol E-400+0.8% DMSO to the corresponding wells (yields 1× concentrated drugs in MEM+0.025% FBS+0.5% Lutrol E-400+0.2% DMSO final)
incubate 48 h at 37° C./5% CO2
incubate 24 h at 37° C./5% CO2
for each well, calculate the mean invasion distance of the counted cells: (25 μm×number of cells at 25 μm+50 μm×number cells at 50 μm)/sum of cells at 0, 25 and 50 μm
invalidate any replicate with a CV≥50% (compound to be re-tested, or assay to be repeated if CV≥50% for the untreated negative control or the compound Y-27632-treated positive control). Y27632 is a selective inhibitor of the Rho-associated protein kinase p160ROCK of the following formula
validate the assay only if the mean invasion distance of the cells treated with 10 μM Y-27632 (positive control) is decreased by ≥40% as compared to the untreated negative control
as §5
Here, invasion (into collagen) is the concentration of the compound necessary to reach 50% of the inhibition effect compared to 10 μM Y-27632.
Standard operating procedure 2 is exactly the same as the procedure as described in example 15.

With `CN1CCN(CCCNC(=O)c2cccc(Nc3cccc(C(=O)N(C)c4ccncc4)c3)c2)CC1` [Compound 20, N-methyl-3-((3-((3-(4-methylpiperazin-1-yl)propyl)carbamoyl)phenyl)amino)-N-(pyridin-4-yl)benzamide], the “PBMC tox.: 50% tox. at (μM) av” value in series [1] was >100 µM. Moreover, the “(+ MDA tox. under these cond.) % tox” value in series [2] is given as <10%. For the same compound, the “MDA tox: 50% tox. at (μM) av” value in series [3] is >100 µM. Further, the IC50 in series [4] turned out to be 0.85 µM.
Regarding `CN(C(=O)c1cccc(Nc2cccc(C(=O)NCCCN3CCCCC3)c2)c1)c1ccncc1` [Compound 21, N-methyl-3-((3-((3-(piperidin-1-yl)propyl)carbamoyl)phenyl)amino)-N-(pyridin-4-yl)benzamide], the “PBMC tox.: 50% tox. at (μM) av” value in series [1] was >100 µM. The “(+ MDA tox. under these cond.) % tox” value in series [2] is recorded as <10%. Also, the “MDA tox: 50% tox. at (μM) av” value in series [3] is >100 µM. Besides, the IC50 in series [4] amounted to 2.05 µM.
On to `CN(C(=O)c1cccc(Nc2cccc(C(=O)NCCCN3CCOCC3)c2)c1)c1ccncc1` [Compound 22, N-methyl-3-((3-((3-morpholinopropyl)carbamoyl)phenyl)amino)-N-(pyridin-4-yl)benzamide], for which, in series [1], the “PBMC tox.: 50% tox. at (μM) av” value is >100 µM. Also, the “(+ MDA tox. under these cond.) % tox” value in series [2] is on record as <10%. In addition, the “MDA tox: 50% tox. at (μM) av” value in series [3] was >100 µM. In addition, in series [4], the IC50 stood at 2.25 µM.
As to `CN(C(=O)c1cccc(Nc2cccc(S(=O)(=O)NCCCN3CCCCC3)c2)c1)c1ccncc1` [Compound 24, N-methyl-3-((3-(N-(3-(piperidin-1-yl)propyl)sulfamoyl)phenyl)amino)-N-(pyridin-4-yl)benzamide], in series [1], the “PBMC tox.: 50% tox. at (μM) av” value is ≥100 µM. Besides, the “(+ MDA tox. under these cond.) % tox” value in series [2] is reported as <10%. Moreover, the “MDA tox: 50% tox. at (μM) av” value in series [3] is >100 µM. For the same compound, in series [4], the IC50 was 3.55 µM.
On to `CCN(CC)CCCNC(=O)c1cccc(Nc2cccc(C(=O)Nc3ccncn3)c2)c1` [Compound 25, N-(3-(diethylamino)propyl)-3-((3-(pyrimidin-4-ylcarbamoyl)phenyl)amino)benzamide], for which the “PBMC tox.: 50% tox. at (μM) av” value in series [1] turned out to be 88 µM. The “(+ MDA tox. under these cond.) % tox” value in series [2] is <10%. In series [3], the “MDA tox: 50% tox. at (μM) av” value came out at 46 µM. The IC50 in series [4] is < 0.5 µM.
For `CCN(CC)CCCNS(=O)(=O)c1cccc(Nc2cccc(C(=O)Nc3ccncn3)c2)c1` [Compound 26, 3-((3-(N-(3-(diethylamino)propyl)sulfamoyl)phenyl)amino)-N-(pyrimidin-4-yl)benzamide], in series [1], the “PBMC tox.: 50% tox. at (μM) av” value is 85 µM. Moreover, the “(+ MDA tox. under these cond.) % tox” value in series [2] was <10%. Moreover, in series [3], the “MDA tox: 50% tox. at (μM) av” value was found to be 73 µM. In series [4], the IC50 turned out to be 3.6 µM.
`O=C(Nc1ccncn1)c1cccc(Nc2cccc(S(=O)(=O)NCCCN3CCCCC3)c2)c1` [Compound 27, 3-((3-(N-(3-(piperidin-1-yl)propyl)sulfamoyl)phenyl)amino)-N-(pyrimidin-4-yl)benzamide]: in series [1], the “PBMC tox.: 50% tox. at (μM) av” value was found to be 61 µM. Further, the “(+ MDA tox. under these cond.) % tox” value in series [2] was <10%. For the same compound, the “MDA tox: 50% tox. at (μM) av” value in series [3] came to 66 µM. Also, in series [4], the IC50 worked out at 2.8 µM.
For the compound `O=C(NCCCN1CCCC1)c1cccc(Nc2cccc(C(=O)Nc3ccncn3)c2)c1` [Compound 28, N-(pyrimidin-4-yl)-3-((3-((3-(pyrrolidin-1-yl)propyl)carbamoyl)phenyl)amino)benzamide], the “PBMC tox.: 50% tox. at (μM) av” value in series [1] amounted to 49 µM. Moreover, in series [2], the “(+ MDA tox. under these cond.) % tox” value was <10%. The “MDA tox: 50% tox. at (μM) av” value in series [3] was determined as 35 µM. Besides, the IC50 in series [4] was 0.26 µM.
As to `O=C(NCCCN1CCCCC1)c1cccc(Nc2cccc(C(=O)Nc3ccncn3)c2)c1` [Compound 29, N-(3-(piperidin-1-yl)propyl)-3-((3-(pyrimidin-4-ylcarbamoyl)phenyl)amino)benzamide], in series [1], the “PBMC tox.: 50% tox. at (μM) av” value was 44 µM. Also, in series [2], the “(+ MDA tox. under these cond.) % tox” value is given as <10%. Further, the “MDA tox: 50% tox. at (μM) av” value in series [3] came to 33 µM. Besides, the IC50 in series [4] was 0.15 µM.
Turning to `O=C(NCCCN1CCOCC1)c1cccc(Nc2cccc(C(=O)Nc3ccncn3)c2)c1` [Compound 30, N-(3-morpholinopropyl)-3-((3-(pyrimidin-4-ylcarbamoyl)phenyl)amino)benzamide], the “PBMC tox.: 50% tox. at (μM) av” value in series [1] was >100 µM. Also, in series [2], the “(+ MDA tox. under these cond.) % tox” value is <10%. For the same compound, in series [3], the “MDA tox: 50% tox. at (μM) av” value is 75 µM. Also, the IC50 in series [4] stood at 0.28 µM.
Take `CN1CCN(CCCNC(=O)c2cccc(Nc3cccc(C(=O)Nc4ccncn4)c3)c2)CC1` [Compound 31, N-(3-(4-methylpiperazin-1-yl)propyl)-3-((3-(pyrimidin-4-ylcarbamoyl)phenyl)amino)benzamide]: the “PBMC tox.: 50% tox. at (μM) av” value in series [1] came out at 92 µM. In addition, the “(+ MDA tox. under these cond.) % tox” value in series [2] is reported as <10%. The “MDA tox: 50% tox. at (μM) av” value in series [3] was 95 µM. Further, in series [4], the IC50 came to 0.1 µM.
As to `CCN(CC)CCCNC(=O)c1cncc(Nc2cccc(C(=O)Nc3ccncc3)c2)c1` [Compound 32, N-(3-(diethylamino)propyl)-5-((3-(pyridin-4-ylcarbamoyl)phenyl)amino) nicotinamide], the “PBMC tox.: 50% tox. at (μM) av” value in series [1] is >>100 μM. The “(+ MDA tox. under these cond.) % tox” value in series [2] is <10%. The “MDA tox: 50% tox. at (μM) av” value in series [3] is reported as >>100 μM. In series [4], the IC50 stood at 13.3 µM.
In the case of `CCN(CC)CCCNC(=O)c1ccnc(Nc2cccc(C(=O)Nc3ccncc3)c2)c1` [Compound 33, N-(3-(diethylamino)propyl)-2-((3-(pyridin-4-ylcarbamoyl)phenyl)amino) isonicotinamide], the “PBMC tox.: 50% tox. at (μM) av” value in series [1] turned out to be 130 µM. For the same compound, the “(+ MDA tox. under these cond.) % tox” value in series [2] is on record as <10%. In series [3], the “MDA tox: 50% tox. at (μM) av” value came to 118 µM. For the same compound, the IC50 in series [4] is 2.13 µM.
For the compound `CN1CCN(CCCNC(=O)c2ccnc(Nc3cccc(C(=O)Nc4ccncc4)c3)c2)CC1` [Compound 34], in series [1], the “PBMC tox.: 50% tox. at (μM) av” value was >100 µM. Further, in series [2], the “(+ MDA tox. under these cond.) % tox” value was <10%. In addition, the “MDA tox: 50% tox. at (μM) av” value in series [3] came out at 98 µM. Besides, in series [4], the IC50 stood at 0.4 µM.
